From the NIST ThermoML archive (doi:10.1021/acs.jced.8b00879) come the findings set out here.

The viscosity is the internal friction of a fluid under shear. The term mass density denotes mass per unit of volume.

Numbers after ± are expanded uncertainties.

The nature of data set [1]: mn = molality of the nth substance listed, in mol/kg. The conditions noted are these: 85 kPa, Liquid, m2 = 0; for viscosity: Capillary tube (Ostwald / Ubbelohde) method.
The conditions of data set [2]: 85 kPa, Liquid, Capillary tube (Ostwald / Ubbelohde) method.

As for `O` [water] + C[N+](C)(C)CCO.O=C([O-])[C@@H]1CCCN1, the viscosity in data set [1] (288.15 K) is 1.259 ± 0.12 mPa·s; in data set [1] (298.15 K), 0.995 ± 0.12 mPa·s; in data set [1] (308.15 K), 0.819 ± 0.12 mPa·s; in data set [1] (318.15 K), 0.686 ± 0.12 mPa·s.
As for `O` [water], the viscosity came out at 1.259 ± 0.12 mPa·s in data set [2] (288.15 K), 0.995 ± 0.12 mPa·s in data set [2] (298.15 K), 0.819 ± 0.12 mPa·s in data set [2] (308.15 K) and 0.686 ± 0.12 mPa·s in data set [2] (318.15 K).
As to `O` [water] + C[N+](C)(C)CCO.NCC(=O)[O-], the viscosity amounted to 1.259 ± 0.12 mPa·s in data set [1] (288.15 K), 0.995 ± 0.12 mPa·s in data set [1] (298.15 K), 0.819 ± 0.12 mPa·s in data set [1] (308.15 K) and 0.686 ± 0.12 mPa·s in data set [1] (318.15 K). The mass density in data set [1] (298.15 K, Vibrating tube method) came out at 997.38 ± 0.43 kg/m3.
